Counter-ions that a name gives are not always drawn. Like-named read-outs stand apart in the source and are kept apart here.
Tested on: Aβ1-42 production
Test: Cellular assay for inhibition of Aβ1-42 production (H4 APP751 SWE clone 8.20)
Format: cell-based
Settings: H4 APP751 SWE clone 8.20 cells, 19 h incubation
How it was run: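 Cells incubate with compound for 19 h (37 °C, 5% CO2), the plate is briefly spun, and antibody mix is added straight to the wells: Wallac-conjugated 565 against the Aβ42 C-terminal neoepitope and APC-conjugated 26D6 against the Aβ N-terminus. After overnight sealing at 4 °C, signal is counted and IC50 fitted.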

[1] = 19 h, class symbols, read-out: Activity Rating (Aβ42 cellular IC50)
[2] = class symbols, read-out: Activity Rating (Aβ42 cellular IC50)
[3] = 19 h, read-out: Activity Rating (Aβ42 cellular IC50), numeric value

Row | SMILES | IC50 [1] [µM] | IC50 [2] [µM] | other results
1 | CNc1nc(Nc2ccc(-n3cnc(C)n3)c(F)c2)nc2c1CCC2c1ccc(F)cc1 (stereo not shown) [Example 35, N^2-(3-fluoro-4-(3-methyl-1H-1,2,4-triazol-1-yl)phenyl)-7-(4-fluorophenyl)-N^4-methyl-6,7-dihydro-5H-cyclopenta[d]pyrimidine-2,4-diamine] | 0.0015 to 0.0099 | – | –
2 | COc1cc(Nc2nc3c(c(N4CC[C@@H](F)C4)n2)CCC3c2ccc(F)cc2)ccc1-n1cnc(Cl)c1 (stereo partly drawn) [Example 38, N-(4-(4-chloro-1H-imidazol-1-yl)-3-methoxyphenyl)-7-(4-fluorophenyl)-4-((R)-3-fluoropyrrolidin-1-yl)-6,7-dihydro-5H-cyclopenta[d]pyrimidin-2-amine] | 0.01 to 0.1 | – | –
3 | COc1cc(Nc2nc3c(c(N4CC[C@@H](F)C4)n2)CCC3c2ccc(F)cc2)ccc1-n1cnc(Cl)c1 (stereo partly drawn) [Example 38B, N-(4-(4-chloro-1H-imidazol-1-yl)-3-methoxyphenyl)-7-(4-fluorophenyl)-4-((R)-3-fluoropyrrolidin-1-yl)-6,7-dihydro-5H-cyclopenta[d]pyrimidin-2-amine] | – | 0.01 to 0.1 | –
4 | COc1cc(Nc2nc3c(c(N4CCC(F)(F)CC4)n2)CCC3c2ccc(F)cc2)ccc1-n1cnc(Cl)c1 (stereo not shown) [Example 39B, N-(4-(4-chloro-1H-imidazol-1-yl)-3-methoxyphenyl)-4-(4,4-difluoropiperidin-1-yl)-7-(4-fluorophenyl)-6,7-dihydro-5H-cyclopenta[d]pyrimidin-2-amine] | 0.1 to 1 | – | –
5 | COc1cc(Nc2nc3c(c(N4CC=C(F)CC4)n2)CCC3c2ccc(F)cc2)ccc1-n1cnc(Cl)c1 (stereo not shown) [Example 40A, N-(4-(4-chloro-1H-imidazol-1-yl)-3-methoxyphenyl)-4-(4-fluoro-5,6-dihydropyridin-1(2H)-yl)-7-(4-fluorophenyl)-6,7-dihydro-5H-cyclopenta[d]pyrimidin-2-amine] | – | 0.0015 to 0.0099 | –
6 | COc1cc(Nc2nc3c(c(N4CC=C(F)CC4)n2)CCC3c2ccc(F)cc2)ccc1-n1cnc(Cl)c1 (stereo not shown) [Example 40B, N-(4-(4-chloro-1H-imidazol-1-yl)-3-methoxyphenyl)-4-(4-fluoro-5,6-dihydropyridin-1(2H)-yl)-7-(4-fluorophenyl)-6,7-dihydro-5H-cyclopenta[d]pyrimidin-2-amine] | – | 0.1 to 1 | –
7 | COc1cc(Nc2nc3c(c(N4CCC(C(F)(F)F)C4)n2)CCC3c2ccc(F)cc2)ccc1-n1cnc(Cl)c1 (stereo not shown) [Example 41A, N-(4-(4-chloro-1H-imidazol-1-yl)-3-methoxyphenyl)-7-(4-fluorophenyl)-4-(3-(trifluoromethyl)pyrrolidin-1-yl)-6,7-dihydro-5H-cyclopenta[d]pyrimidin-2-amine] | 0.01 to 0.1 | – | –
8 | CCOCCCNc1nc(Nc2ccc(-n3cnc(Cl)c3)c(OC)c2)nc2c1CCC2c1ccc(F)cc1 (stereo not shown) [Example 42, N2-(4-(4-chloro-1H-imidazol-1-yl)-3-methoxyphenyl)-N4-(3-ethoxypropyl)-7-(4-fluorophenyl)-6,7-dihydro-5H-cyclopenta[d]pyrimidine-2,4-diamine] | 0.01 to 0.1 | – | –
9 | COCC(Nc1nc(Nc2ccc(-n3cnc(Cl)c3)c(OC)c2)nc2c1CCC2c1ccc(F)cc1)C1CC1 (stereo not shown) [Example 45B, N2-(4-(4-chloro-1H-imidazol-1-yl)-3-methoxyphenyl)-N4-(1-cyclopropyl-2-methoxyethyl)-7-(4-fluorophenyl)-6,7-dihydro-5H-cyclopenta[d]pyrimidine-2,4-diamine] | – | – | IC50 [3]: 0.0025 µM
10 | [2H]C([2H])([2H])Nc1nc(Nc2ccc(-n3cnc(Cl)c3)c(OC)c2)nc2c1CCC2c1ccc(F)cc1 (stereo not shown) [Example 47, N^2-(4-(4-Chloro-1H-imidazol-1-yl)-3-methoxyphenyl)-7-(4-fluorophenyl)-N^4-trideuteromethyl-6,7-dihydro-5H-cyclopenta[d]pyrimidine-2,4-diamine] | 0.0015 to 0.0099 | – | –
11 | CCC(COC)Nc1nc(Nc2ccc(-n3cnc(Cl)c3)c(OC)c2)nc2c1CCC2c1ccc(F)cc1 [Example 48, N2-(4-(4-chloro-1H-imidazol-1-yl)-3-methoxyphenyl)-7-(4-fluorophenyl)-N4-((R)-1-methoxybutan-2-yl)-6,7-dihydro-5H-cyclopenta[d]pyrimidine-2,4-diamine, 2 TFA] | – | – | IC50 [3]: 0.018 µM
12 | CNc1nc(Nc2ccc(-n3cnc(Cl)c3)c(OC)c2)nc2c1COCC2c1ccccc1 (stereo not shown) [Example 51, N^2-(4-(4-chloro-1H-imidazol-1-yl)-3-methoxyphenyl)-N^4-methyl-8-phenyl-7,8-dihydro-5H-pyrano[4,3-d]pyrimidine-2,4-diamine] | – | – | IC50 [3]: 0.0045 µM
13 | CNc1nc(Nc2ccc(-n3cnc(C)n3)c(OC)c2)nc2c1COCC2c1ccc(F)cc1 (stereo not shown) [Example 54A, 8-(4-fluorophenyl)-N2-(3-methoxy-4-(3-methyl-1H-1,2,4-triazol-1-yl)phenyl)-N4-methyl-7,8-dihydro-5H-pyrano[4,3-d]pyrimidine-2,4-diamine] | – | 0.01 to 0.1 | –
14 | CNc1nc(Nc2ccc(-n3cnc(C)n3)c(OC)c2)nc2c1COCC2c1ccc(F)cc1 (stereo not shown) [Example 54B, 8-(4-fluorophenyl)-N2-(3-methoxy-4-(3-methyl-1H-1,2,4-triazol-1-yl)phenyl)-N4-methyl-7,8-dihydro-5H-pyrano[4,3-d]pyrimidine-2,4-diamine] | – | 0.0015 to 0.0099 | –
15 | CCNc1nc(Nc2ccc(-n3cnc(C)n3)c(OC)c2)nc2c1COCC2c1ccc(F)cc1 (stereo not shown) [Example 55B, N4-ethyl-8-(4-fluorophenyl)-N2-(3-methoxy-4-(3-methyl-1H-1,2,4-triazol-1-yl)phenyl)-7,8-dihydro-5H-pyrano[4,3-d]pyrimidine-2,4-diamine] | 0.01 to 0.1 | – | –
16 | CCNc1nc(Nc2ccc(-n3cnc(Cl)c3)c(OC)c2)nc2c1COCC2c1ccc(F)cc1 (stereo not shown) [Example 56A, N2-(4-(4-chloro-1H-imidazol-1-yl)-3-methoxyphenyl)-N4-ethyl-8-(4-fluorophenyl)-7,8-dihydro-5H-pyrano[4,3-d]pyrimidine-2,4-diamine] | – | 0.0015 to 0.0099 | –
17 | CCNc1nc(Nc2ccc(-n3cnc(Cl)c3)c(OC)c2)nc2c1COCC2c1ccc(F)cc1 (stereo not shown) [Example 56B, N2-(4-(4-chloro-1H-imidazol-1-yl)-3-methoxyphenyl)-N4-ethyl-8-(4-fluorophenyl)-7,8-dihydro-5H-pyrano[4,3-d]pyrimidine-2,4-diamine] | – | 0.01 to 0.1 | –
18 | CCNc1nc(Nc2ccc(-n3ncnc3C)c(F)c2)nc2c1COCC2c1ccc(F)cc1 (stereo not shown) [Example 59A, N4-ethyl-N2-(3-fluoro-4-(5-methyl-1H-1,2,4-triazol-1-yl)phenyl)-8-(4-fluorophenyl)-7,8-dihydro-5H-pyrano[4,3-d]pyrimidine-2,4-diamine] | 0.0015 to 0.0099 | – | –
19 | CNc1nc(Nc2ccc(-n3cnc(Cl)c3)c(OC)c2)nc2c1COCC2c1ccc(F)cc1 (stereo not shown) [Example 60A, N2-(4-(4-chloro-1H-imidazol-1-yl)-3-methoxyphenyl)-8-(4-fluorophenyl)-N4-methyl-7,8-dihydro-5H-pyrano[4,3-d]pyrimidine-2,4-diamine] | – | – | IC50 [3]: 0.0056 µM
20 | CNc1nc(Nc2ccc(-n3cnc(Cl)c3)c(OC)c2)nc2c1COCC2c1ccc(F)cc1 (stereo not shown) [Example 60B, N2-(4-(4-chloro-1H-imidazol-1-yl)-3-methoxyphenyl)-8-(4-fluorophenyl)-N4-methyl-7,8-dihydro-5H-pyrano[4,3-d]pyrimidine-2,4-diamine] | 0.01 to 0.1 | – | –
21 | COc1cc(Nc2nc3c(c(N(C)C)n2)COCC3c2ccc(F)cc2)ccc1-n1cnc(Cl)c1 (stereo not shown) [Example 61A, N2-(4-(4-chloro-1H-imidazol-1-yl)-3-methoxyphenyl)-8-(4-fluorophenyl)-N4,N4-dimethyl-7,8-dihydro-5H-pyrano[4,3-d]pyrimidine-2,4-diamine] | – | 0.0015 to 0.0099 | –
22 | COc1cc(Nc2nc3c(c(N(C)C)n2)COCC3c2ccc(F)cc2)ccc1-n1cnc(Cl)c1 (stereo not shown) [Example 61B, N2-(4-(4-chloro-1H-imidazol-1-yl)-3-methoxyphenyl)-8-(4-fluorophenyl)-N4,N4-dimethyl-7,8-dihydro-5H-pyrano[4,3-d]pyrimidine-2,4-diamine] | – | 0.01 to 0.1 | –
23 | CCN(C)c1nc(Nc2ccc(-n3cnc(Cl)c3)c(OC)c2)nc2c1COCC2c1ccc(F)cc1 (stereo not shown) [Example 62A, N2-(4-(4-chloro-1H-imidazol-1-yl)-3-methoxyphenyl)-N4-ethyl-8-(4-fluorophenyl)-N4-methyl-7,8-dihydro-5H-pyrano[4,3-d]pyrimidine-2,4-diamine] | 0.0015 to 0.0099 | – | –
24 | CCN(C)c1nc(Nc2ccc(-n3cnc(Cl)c3)c(OC)c2)nc2c1COCC2c1ccc(F)cc1 (stereo not shown) [Example 62B, N2-(4-(4-chloro-1H-imidazol-1-yl)-3-methoxyphenyl)-N4-ethyl-8-(4-fluorophenyl)-N4-methyl-7,8-dihydro-5H-pyrano[4,3-d]pyrimidine-2,4-diamine] | – | – | IC50 [3]: 0.086 µM
25 | COc1cc(Nc2nc3c(c(N4CC(F)(F)C4)n2)COCC3c2ccc(F)cc2)ccc1-n1cnc(Cl)c1 (stereo not shown) [Example 63A, N-(4-(4-chloro-1H-imidazol-1-yl)-3-methoxyphenyl)-4-(3,3-difluoroazetidin-1-yl)-8-(4-fluorophenyl)-7,8-dihydro-5H-pyrano[4,3-d]pyrimidin-2-amine] | – | 0.01 to 0.1 | –
26 | COc1cc(Nc2nc3c(c(N4CC(F)(F)C4)n2)COCC3c2ccc(F)cc2)ccc1-n1cnc(Cl)c1 (stereo not shown) [Example 63B, N-(4-(4-chloro-1H-imidazol-1-yl)-3-methoxyphenyl)-4-(3,3-difluoroazetidin-1-yl)-8-(4-fluorophenyl)-7,8-dihydro-5H-pyrano[4,3-d]pyrimidin-2-amine] | – | 0.1 to 1 | –
27 | CNc1nc(Nc2ccc(-n3cnc(Cl)c3)c(OC)c2)nc2c1COCC2c1ccc(Cl)cc1 (stereo not shown) [Example 64, N^2-(4-(4-chloro-1H-imidazol-1-yl)-3-methoxyphenyl)-8-(4-chlorophenyl)-N^4-methyl-7,8-dihydro-5H-pyrano[4,3-d]pyrimidine-2,4-diamine] | 0.01 to 0.1 | – | –
28 | COc1cc(Nc2nc3c(c(N(C)C)n2)COCC3c2ccc(Cl)cc2)ccc1-n1cnc(Cl)c1 (stereo not shown) [Example 65, N^2-(4-(4-chloro-1H-imidazol-1-yl)-3-methoxyphenyl)-8-(4-chlorophenyl)-N^4,N^4-dimethyl-7,8-dihydro-5H-pyrano[4,3-d]pyrimidine-2,4-diamine] | 0.01 to 0.1 | – | –

From US8637525B2, “Compounds for the reduction of beta-amyloid production” (Bristol-Myers Squibb Company, priority 2009, dated 2014)
